Measurements as given in patent US20220107328A1, “METHODS OF TREATING LIVER DISEASES” (Camp4 Therapeutics Corporation, priority 2018, published 2022).

Experiments:
[1] = system: mouse hepatocytes; assay: Cytotoxicity in mouse hepatocytes; assay type: cell-based; conditions: 10 μM
[2] = system: COL1A2 mRNA; assay: qRT-PCR of fibrosis related genes in stellate cells, COL1A2; assay type: cell-based, human; conditions: stellate cells P7, 0.5 μM, 18 hours
Method: (§1) Stellate cells P7 were treated with 0.5 μM of each of the indicated compounds for 18 hours. Cells were processed for RNA extraction and qRT-PCR as previously described. The assay was repeated in triplicate.

[3] = system: COL1A1 mRNA; assay: qRT-PCR of COL1A1 mRNA in human primary hepatic stellate cells; assay type: cell-based; conditions: for Primary Stellate cells COL1A1 (fold change in mRNA expression): 3 μM, relative to GAPDH
[4] = system: PNPLA3 expression; assay: RNA-seq of compound-treated primary human hepatocytes; assay type: cell-based
Method: Cryopreserved hepatocytes were cultured in plating media for 16 hours, transferred to maintenance media for 4 hours. Cultured on serum-free media for 2 hours, then a compound was added. The hepatocytes were maintained on the serum-free media for 16 hours prior to gene expression analysis.
Human hepatocytes cultured as described above were plated in 24-well format, adding 375,000 cells per well in a volume of 500 μl plating medium. Four hours before treatment, cells were washed with PBS and the medium was changed to either: fresh maintenance medium (complete) or modified maintenance medium.
Compound stocks were prepared at 1000× final concentration and added in a 2-step dilution to the medium to reduce risk of a compound precipitating out of solution when added to the cells, and to ensure reasonable pipetting volumes. One at a time, each compound was first diluted 10-fold in warm (about 37° C.) modified maintenance medium (initial dilution=ID), mixed by vortexing, and the ID was diluted 100-fold into the cell culture (e.g. 5.1 μl into 1 well of a 24-well plate containing 0.5 mL medium). The plate was mixed by carefully swirling and after all wells were treated and returned to the incubator overnight. If desired, separate plates/wells were treated with vehicle-only controls and/or positive controls. If using multi-well plates, controls were included on each plate. After about 18 hours, cells were harvested for further analysis, e.g., ChIP-seq, RNA-seq, ATAC-seq, etc.
The expression level of each gene was quantified with normalized FPKM (fragments per kilobase of exon per million mapped fragments). The differentially expressed genes were called using Cuffdiff v2.2.1 with q value<0.01 and log2 fold change>=1 or <=−1.
(§3) To identify small molecules that modulate PNPLA3, primary human hepatocytes were prepared as a monoculture, and at least one small molecule compound was applied to the cells.
(§4) RNA-seq was performed to determine the effects of the compounds on PNPLA3 expression in hepatocytes. Fold change was calculated by dividing the level of expression in the cell system that had been perturbed by the level of expression in an unperturbed system. Changes in expression having a p-value≤0.05 were considered significant.

[5] = system: MMP2 mRNA; assay: qRT-PCR of fibrosis related genes in stellate cells, MMP2; assay type: cell-based, human; conditions: stellate cells P7, 0.5 μM, 18 hours
Method: as §1

[6] = system: ACTA2 mRNA; assay: qRT-PCR of fibrosis related genes in stellate cells, ACTA2; assay type: cell-based, human; conditions: stellate cells P7, 0.5 μM, 18 hours
Method: as §1

[7] = system: PNPLA3 mRNA; assay: qRT-PCR of PNPLA3 mRNA in compound-treated primary human hepatocytes; conditions: for Primary Hepatocytes 4178 PNPLA3 (fold change in mRNA expression): donor 4178, 3 μM; for Primary Hepatocytes 4178 PNPLA3 (fold change in mRNA expression) / Primary Hepatocytes 4282 PNPLA3 (fold change in mRNA expression): relative to GUSB; for Primary Hepatocytes 4282 PNPLA3 (fold change in mRNA expression): donor 4282, 3 μM
[8] = system: TGFB1 mRNA; assay: qRT-PCR of fibrosis related genes in stellate cells, TGFB1; assay type: cell-based, human; conditions: stellate cells P7, 0.5 μM, 18 hours
Method: as §1

[9] = system: PNPLA3 mRNA; assay: qRT-PCR of PNPLA3 mRNA in human primary hepatic stellate cells; assay type: cell-based; conditions: for Primary Stellate cells PNPLA3 (fold change in mRNA expression): 3 μM, relative to GAPDH
[10] = system: COL1A1 mRNA in mouse liver; assay: In vivo compound testing in wild-type mice, liver COL1A1 mRNA; conditions: 50 mg/kg once daily, oral gavage, four days; GFAP as control
Method: A group of 6 mice (C57BL/6J strain), 3 male and 3 female, were administered with a candidate compound once daily via oral gavage for four consecutive days. Mice were sacrificed 4 hours post-last dose on the fourth day. Organs including liver, spleen, kidney, adipose, plasma were collected. Mouse liver tissues were pulverized in liquid nitrogen and aliquoted into small microtubes. TRIzol (Invitrogen Cat #15596026) was added to the tubes to facilitate cell lysis from tissue samples. The TRIzol solution containing the disrupted tissue was then centrifuged and the supernatant phase was collected. Total RNA was extracted from the supernatant using Qiagen RNA Extraction Kit (Qiagen Cat #74182) and the target mRNA levels were analyzed using qRT-PCR.
Candidate compounds were administered at an appropriate dose once daily to a group of wild-type mice consisting of 3 male and 3 female mice. Mice were sacrificed on the fourth day and liver tissue was collected and analyzed for PNPLA3 (or COL1A1) expression by qRT-PCR. […] When COL1A1 was analyzed, a stellate cell specific gene GFAP was used as a house-keeping control.

[11] = system: TIM2 mRNA; assay: qRT-PCR of fibrosis related genes in stellate cells, TIM2; assay type: cell-based, human; conditions: stellate cells P7, 0.5 μM, 18 hours
Method: as §1

[12] = system: PCSK9 mRNA; assay: qRT-PCR of PCSK9 mRNA in primary hepatocytes; assay type: cell-based, human; conditions: donor 4178, 3 μM, relative to GUSB
[13] = system: phosphorylated NDRG1 (pNDRG1/NDRG1); assay: Western blot of phosphorylated NDRG1 in human hepatocytes; assay type: cell-based; conditions: 3 μM, mTORC2 pathway, time point not stated
Method: (§2) Levels of phosphorylated S6, AKT, and NDRG1 proteins were determined as compared to total S6, AKT, and NDRG1 protein. PNPLA3 mRNA expression was quantified and normalized to housekeeping gene GUSB.

[14] = system: phosphorylated AKT (pAKT/AKT); assay: Western blot of phosphorylated AKT in human hepatocytes; assay type: cell-based; conditions: human hepatocytes, 3 μM, mTORC2 pathway; time point not stated
Method: as §2

[15] = system: phosphorylated 4EBP1 (p4EBP1c (37/46)/4EBP1c); assay: Western blot of phosphorylated 4EBP1 in human hepatocytes; assay type: cell-based; conditions: 3 μM, mTORC1 pathway, time point not stated
[16] = system: phosphorylated S6 (pS6/S6); assay: Western blot of phosphorylated S6 in human hepatocytes; assay type: cell-based; conditions: human hepatocytes, 3 μM, mTORC1 pathway; time point not stated
Method: as §2

[17] = system: PNPLA5 expression; assay: RNA-seq of compound-treated primary human hepatocytes, PNPLA5; assay type: cell-based
Method: as §3, §4

[18] = hepatic stellate cells, 0.01 μM
[19] = hepatic stellate cells, serial dilutions, 18 hours
[20] = stellate cells P7, 0.5 μM, 18 hours

With `C1=C/COCc2cc(ccc2OCCN2CCCC2)Nc2nccc(n2)-c2cccc(c2)COC/1` [Pacritinib] as the molecule, how does the cytotoxicity / tolerability [1] read?
Its cytotoxicity / tolerability is “slight cytotoxicity”.

With `CNC(=O)Nc1ccc(-c2nc(N3CC4CCC(C3)O4)c3cnn(C4CCC5(CC4)OCCO5)c3n2)cc1` [WYE-125132] as the molecule, how does the “Relative mRNA COL1A2” value [2] read?
Its value is 0.27 ± 0.00.

What about the “Primary Stellate cells COL1A1 (fold change in mRNA expression)” value [3] of the same molecule?
Its value is 0.46.

And the “Relative COL1A1 mRNA levels RQ” value [3, 18]?
Its value is 0.92.

What about the “Relative COL1A1 mRNA levels RQ” value ([3]; hepatic stellate cells, 0.1 μM) of the same molecule?
The value was 0.42.

What about the “Relative COL1A1 mRNA levels RQ” value ([3]; hepatic stellate cells, 1 μM) of the same molecule?
Its value is 0.26.

And the “Relative COL1A1 mRNA levels RQ” value ([3]; hepatic stellate cells, 10 μM)?
The value was 0.29.

What about the “COL1A1 expression (in words)” value [3, 19] of the same molecule?
The value was “decreased both PNPLA3 and COL1A1 in HSCs in a dose-dependent manner”.

What about the “Relative mRNA COL1A1” value [3, 20] of the same molecule?
The value was 0.22 ± 0.01.

And the “Fold change (Log 2) vs untreated” value ([4]; PNPLA3 expression, RNA-seq)?
The value was −0.86.

And the “Relative mRNA MMP2” value [5]?
Its value is 1.33 ± 0.02.

What about the “Relative mRNA ACTA2” value [6] of the same molecule?
The value was 0.54 ± 0.01.

What about the “Relative PNPLA3 mRNA levels” value ([7]; 1 μM of WYE-125132, human hepatocytes, qRT-PCR, mean of three replicates ± standard deviation) of the same molecule?
The value was 0.67 ± 0.09.

What about the “Primary Hepatocytes 4178 PNPLA3 (fold change in mRNA expression)” value [7] of the same molecule?
Its value is 0.43.

And the “Primary Hepatocytes 4282 PNPLA3 (fold change in mRNA expression)” value [7]?
The value was 0.70.

What about the “PNPLA3 expression by reported compound specificity (in words)” value ([7]; summary of mTOR/PI3K inhibitor testing) of the same molecule?
The value was “did decrease PNPLA3 expression”.

And the “Relative mRNA TGFB1” value [8]?
The value was 1.10 ± 0.03.

And the “Primary Stellate cells PNPLA3 (fold change in mRNA expression)” value [9]?
Its value is 0.54.

And the “Relative PNPLA3 mRNA levels RQ” value [9, 18]?
Its value is 0.44.

And the “Relative PNPLA3 mRNA levels RQ” value ([9]; hepatic stellate cells, 0.1 μM)?
Its value is 0.36.

What about the “Relative PNPLA3 mRNA levels RQ” value ([9]; hepatic stellate cells, 1 μM) of the same molecule?
The value was 0.42.

What about the “Relative PNPLA3 mRNA levels RQ” value ([9]; hepatic stellate cells, 10 μM) of the same molecule?
The value was 0.42.

And the “PNPLA3 mRNA levels (in words)” value [9, 19]?
The value was “decreased both PNPLA3 and COL1A1 in HSCs in a dose-dependent manner”.

What about the “Relative mRNA PNPLA3” value [9, 20] of the same molecule?
The value was 0.20 ± 0.01.

What about the “COL1A1 expression in mouse liver (in words)” value [10] of the same molecule?
The value was “reduced COL1A1 expression in mouse liver”.

And the “Relative mRNA TIMP2” value [11]?
Its value is 1.01 ± 0.07.

And the “Primary Hepatocytes 4178 PCSK9 (fold change in mRNA expression)” value [12]?
The value was 0.43.

Which results are given for `CO[C@H]1C[C@@H]2CC[C@@H](C)[C@@](O)(O2)C(=O)C(=O)N2CCCC[C@H]2C(=O)O[C@H]([C@H](C)C[C@@H]2CC[C@@H](O)[C@H](OC)C2)CC(=O)[C@H](C)/C=C(\C)[C@@H](O)[C@@H](OC)C(=O)[C@H](C)C[C@H](C)/C=C/C=C/C=C/1C` [rapamycin]?
p-NDRG1/NDRG1 [13]: 1.76; Primary Stellate cells COL1A1 (fold change in mRNA expression) [3]: 1.43; pAKT (473)/AKT [14]: 2.55; Primary Hepatocytes 4178 PNPLA3 (fold change in mRNA expression) [7]: 1.50; Primary Hepatocytes 4282 PNPLA3 (fold change in mRNA expression) [7]: 1.10; PNPLA3 mRNA ([7]; human hepatocytes, 3 μM, normalized to GUSB, time point not stated): 1.2; Primary Stellate cells PNPLA3 (fold change in mRNA expression) [9]: 0.49; p4EBP1c (37/46)#/4EBP1c [15]: 0.49; Primary Hepatocytes 4178 PCSK9 (fold change in mRNA expression) [12]: 1.37; pS6/S6 [16]: 0.07

Which “PNPLA3 expression in the RNA-seq study (in words)” value [4] does the source give for Activin here?
Its value is “best upregulators of PNPLA3 and PNPLA5”.

What about the “PNPLA5 expression in the RNA-seq study (in words)” value [17] of the same molecule?
Its value is “best upregulators of PNPLA3 and PNPLA5”.

B1: GDF2 (protein, UniProt Q9UK05 320-429, looked up)
Growth/differentiation factor …: SAGAGSHCQKTSLRVNFEDIGWDSWIIAPKEYEAYECKGGCFFPLADDVTPTKHAIVQTLVHLKFPTKVGKACCVPTKLSPISVLYKDDMGVPTLKYHYEGMSVAECGCR
Which “PNPLA3 expression in the RNA-seq study (in words)” value [4] does the source give for B1 here?
Its value is “best upregulators of PNPLA3 and PNPLA5”.

And the “PNPLA5 expression in the RNA-seq study (in words)” value [17]?
The value was “best upregulators of PNPLA3 and PNPLA5”.
